Drawing on patent US20240043395A1, “COMPOUNDS AND COMPOSITIONS AS MODULATORS OF TLR SIGNALING” (Neuropore Therapies, Inc., priority 2020, published 2024), this text covers IC50 for 25 compounds.

Test [1] concerns the target T1, human TLR2 (Homo sapiens (Human), UniProt O60603). Nature of the test: HEK-Blue hTLR2 antagonism assay (SEAP reporter), agonist Pam2CSK4. In kind it is cell-based. The settings on record: HEK-Blue hTLR2 cells; Pam2CSK4 (TLR2/6 agonist) at approx. 3×EC50; 18 h; 8-point dilutions. Here is the method: (§1) Synthetic diacylated lipoprotein (Pam2CSK4, TLR2/6 agonist) and synthetic triacylated lipoprotein (Pam3CSK4, TLR1/2 agonist) were obtained from InvivoGen and were dissolved in endotoxin-free water to a concentration 1 mg/mL, vortexed until complete solubilization, and stored in aliquots at −20° C. Prior to addition to cells, an aliquot of the dissolved ligand was vortexed shortly and then was diluted in medium to 25 ng/mL Pam2CSK4 or 1000 ng/mL Pam3CSK4.
(§2) Test compounds were solubilized fresh to 10-20 mM stocks in DMSO and sonicated for 5-10 minutes in a water bath sonicator. Serial dilutions were prepared in DMSO, and then diluted in medium. The final concentration of DMSO used in the assay was 1%.
(§3) HEK-Blue hTLR2 reporter cells (InvivoGen) are HEK-293 cells stably expressing both the human TLR2 gene and a secreted embryonic alkaline phosphatase (SEAP) reporter construct downstream of NFκB promotor sites. HEK-Blue hTLR2 reporters were cultured according to manufacturer's protocol using Dulbecco's Modified Eagle Medium (DMEM; Gibco) containing 1× GlutaMax (Gibco), 10% heat-inactivated Fetal Bovine Serum (Gibco), Pen-Strep (50 U/mL penicillin, 50 μg/mL streptomycin, Gibco), 100 μg/mL Normocin (InvivoGen), and the selective antibiotic, lx HEK-Blue Selection (InvivoGen). Quanti-Blue reagent (InvivoGen) for detection and quantification of secreted alkaline phosphatase was dissolved in 100 mL of endotoxin-free water, warmed to 37° C. for 30 minutes and then filtered using a 0.2 μm membrane.
(§4) On day 1, 50 μL of each test compound dilution in duplicates or a vehicle control was added to each well of a 96-well plate followed by addition of 150 μL of HEK-Blue hTLR2 cell suspension (1×10^5 cells/well) and incubated at 37° C./5% CO2 for 2 h. Next, 50 μL of an approximate 3×EC50 concentration of each agonist (Pam2CSK4 or Pam3CSK4) was added to the wells containing test compounds or the vehicle control. The plates were then incubated at 37° C./5% CO2 for 18 h. For each assay run, non-treated HEK-Blue hTLR2 cells were treated with serial dilutions of agonists to determine EC50 values for the respective run.
(§5) On day 2, secreted alkaline phosphatase (SEAP) activity was detected in cell culture supernatants. In brief, 20 μL was collected from each well and transferred to a 96-well plate. Next, 200 μL of Quanti-Blue detection reagent was added to each well. Plates were incubated at room temperature for 15 min and SEAP activity was assessed by spectrophotometer OD reading at 655 nm. […] IC50 values were calculated based on 8-point dilutions for each compound.

For test [2], the target named is T1, human TLR2. Kind of test: HEK-Blue hTLR2 antagonism assay (SEAP reporter), agonist Pam3CSK4. In kind it is cell-based. The settings on record: HEK-Blue hTLR2 cells; Pam3CSK4 (TLR1/2 agonist) at approx. 3×EC50; 18 h; 8-point dilutions. Here is the method: as §1, §2, §3, §4, §5

T1 sequence (O60603 21-784): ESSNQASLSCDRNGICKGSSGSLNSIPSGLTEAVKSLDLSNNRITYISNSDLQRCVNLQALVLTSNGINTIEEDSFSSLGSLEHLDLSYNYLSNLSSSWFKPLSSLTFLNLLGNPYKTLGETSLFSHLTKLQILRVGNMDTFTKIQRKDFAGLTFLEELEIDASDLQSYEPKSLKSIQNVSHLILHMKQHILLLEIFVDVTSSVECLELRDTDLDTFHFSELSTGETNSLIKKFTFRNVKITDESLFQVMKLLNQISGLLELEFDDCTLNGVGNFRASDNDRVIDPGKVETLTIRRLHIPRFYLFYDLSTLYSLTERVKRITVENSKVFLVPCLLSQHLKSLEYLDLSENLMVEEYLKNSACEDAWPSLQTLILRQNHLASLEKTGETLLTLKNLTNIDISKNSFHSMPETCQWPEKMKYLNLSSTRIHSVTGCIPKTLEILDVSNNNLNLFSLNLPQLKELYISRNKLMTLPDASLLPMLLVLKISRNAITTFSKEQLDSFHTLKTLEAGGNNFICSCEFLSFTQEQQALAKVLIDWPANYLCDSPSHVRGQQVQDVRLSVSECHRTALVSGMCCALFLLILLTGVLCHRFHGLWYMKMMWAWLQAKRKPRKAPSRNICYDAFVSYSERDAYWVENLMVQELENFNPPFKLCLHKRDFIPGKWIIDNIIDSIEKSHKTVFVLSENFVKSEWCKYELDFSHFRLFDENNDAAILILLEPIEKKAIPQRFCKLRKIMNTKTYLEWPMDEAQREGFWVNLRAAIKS

In the case of `O=Cc1cc(C(=O)Nc2cnc(N3CCCC3)s2)cc(F)c1O` [Compound 8, 3-fluoro-5-formyl-4-hydroxy-N-(2-(pyrrolidin-1-yl)thiazol-5-yl)benzamide], the IC50 in test [1] was found to be 17.7 µM; in test [2] it was 12.9 µM.
For `O=Cc1cc(C(=O)c2ccc(N3CCCC3)cc2)cc(F)c1O` [Compound 14, 3-fluoro-2-hydroxy-5-(4-(pyrrolidin-1-yl)benzoyl)benzaldehyde], in that order: 18.2 µM and 18.7 µM.
For `O=Cc1cc(C(=O)N2CCCN(c3cccc(N4CCCC4)c3)CC2)cc(F)c1O` [Compound 98, 3-fluoro-2-hydroxy-5-(4-(3-(pyrrolidin-1-yl)phenyl)-1,4-diazepane-1-carbonyl)benzaldehyde], in that order: 15.1 µM and 18.1 µM.
As for `O=Cc1cc(C(=O)N2CCC(c3ccc(N4CCCC4)cc3)CC2)cc(F)c1O` [Compound 34, 3-fluoro-2-hydroxy-5-(4-(4-(pyrrolidin-1-yl)phenyl)piperidine-1-carbonyl)benzaldehyde], the IC50 was 0.9 µM in test [1] and 0.4 µM in test [2].
For `COCCOCC(=O)Oc1c(F)cc(-c2nc(-c3ccc(N4CCCC4)cc3)ns2)cc1C=O` [Compound 176, 2-fluoro-6-formyl-4-(3-(4-(pyrrolidin-1-yl)phenyl)-1,2,4-thiadiazol-5-yl)phenyl 2-(2-methoxyethoxy)acetate], in that order: 2 µM and 0.6 µM.
Consider `C[n+]1ccccc1Oc1c(F)cc(-c2nc(-c3ccc(N4CCCC4)cc3)ns2)cc1C=O` [Compound 177, 2-(2-fluoro-6-formyl-4-(3-(4-(pyrrolidin-1-yl)phenyl)-1,2,4-thiadiazol-5-yl)phenoxy)-1-methylpyridinium iodide], for which the IC50 in test [1] was 1.6 µM; in test [2] it was 0.6 µM.
For `O=Cc1cc(C(=O)N2CC[C@@H](c3ccc(N4CCCC4)cc3)C2)cc(F)c1O` (single isomer, unassigned) [Compound 157], in that order: 3 µM and 2.2 µM.
For `O=Cc1cc(COC(=O)Nc2cccc(N3CCCC3)c2)cc(F)c1O` [Compound 159, 3-fluoro-5-formyl-4-hydroxybenzyl (3-(pyrrolidin-1-yl)phenyl)carbamate], in that order: 9.29 µM and 4.39 µM.
Take `O=Cc1cc(C(=O)Nc2ncc(-c3ccc(N4CCCC4)cc3)s2)cc(F)c1O` [Compound 13, 3-fluoro-5-formyl-4-hydroxy-N-(5-(4-(pyrrolidin-1-yl)phenyl)thiazol-2-yl)benzamide]: the values for the IC50 in test [1] and in test [2] were 1.5 µM and 1 µM, respectively.
For `O=Cc1cc(C(=O)N2CC[C@H](c3ccc(N4CCCC4)cc3)C2)cc(F)c1O` (single isomer, unassigned) [Compound 156], in that order: 3.7 µM and 3.2 µM.
As to `O=Cc1cc(-c2scnc2-c2ccccc2)cc(F)c1O` [Compound 18, 3-fluoro-2-hydroxy-5-(4-phenylthiazol-5-yl)benzaldehyde], the half-inhibitory concentration (IC50) was 22.2 µM in test [1] and 20.3 µM in test [2].
As for `O=Cc1cc(-c2nc(-c3ccc(N4CCCC4)cc3)ns2)cc(F)c1OC(=O)N1CCCC1` [Compound 172, 2-fluoro-6-formyl-4-(3-(4-(pyrrolidin-1-yl)phenyl)-1,2,4-thiadiazol-5-yl)phenyl pyrrolidine-1-carboxylate], the half-maximal inhibitory concentration (IC50) came to 1 µM in test [1] and 0.5 µM in test [2].
For `O=Cc1cc(C(=O)NCCCc2ccc(N3CCCC3)cc2)cc(F)c1O` [Compound 144, 3-fluoro-5-formyl-4-hydroxy-N-(3-(4-(pyrrolidin-1-yl)phenyl)propyl)benzamide], in that order: 9.3 µM and 5.3 µM.
For `COc1cc(-c2cnn(-c3ccc(C(F)(F)F)cc3)c2)cc(C=O)c1O` [Compound 128, 2-hydroxy-3-methoxy-5-(1-(4-(trifluoromethyl)phenyl)-1H-pyrazol-4-yl)benzaldehyde], in that order: 0.7 µM and 0.8 µM.
Take `O=Cc1cc(C(=O)Nc2cnc(-c3ccnc(N4CCCC4)c3)s2)cc(F)c1O` [Compound 168, 3-fluoro-5-formyl-4-hydroxy-N-(2-(2-(pyrrolidin-1-yl)pyridin-4-yl)thiazol-5-yl)benzamide]: the IC50 stood at 15.8 µM in test [1] and 9.6 µM in test [2].
Consider `O=Cc1cc(-c2nc(-c3ccc(N4CCCC4)cc3)ns2)cc(F)c1OC(=O)N1CCOCC1` [Compound 174, 2-fluoro-6-formyl-4-(3-(4-(pyrrolidin-1-yl)phenyl)-1,2,4-thiadiazol-5-yl)phenyl morpholine-4-carboxylate], for which the IC50 was found to be 1.5 µM in test [1] and 0.6 µM in test [2].
For `O=Cc1cc(C(=O)NNc2cccc(Br)c2)cc(F)c1O` [Compound 160, N′-(3-bromophenyl)-3-fluoro-5-formyl-4-hydroxybenzohydrazide], in that order: 38.4 µM and 26.5 µM.
With `NS(=O)(=O)c1ccc(-c2nsc(-c3cc(F)c(O)c(C=O)c3)n2)cc1` [Compound 170, 4-(5-(3-fluoro-5-formyl-4-hydroxyphenyl)-1,2,4-thiadiazol-3-yl)benzenesulfonamide], the IC50 in test [1] turned out to be 17.7 µM; in test [2], 5.36 µM.
As for `O=Cc1cc(-c2nc(-c3ccc(N4CC(F)(F)C4)cc3)ns2)cc(F)c1O` [Compound 169, 5-(3-(4-(3,3-difluoroazetidin-1-yl)phenyl)-1,2,4-thiadiazol-5-yl)-3-fluoro-2-hydroxybenzaldehyde], the results for the IC50 in test [1] and in test [2] were 2.5 µM and 1.3 µM, respectively.
For the compound `C[C@H]1[C@H](c2ccc(N3CCCC3)cc2)OCCN1C(=O)c1cc(F)c(O)c(C=O)c1` (racemic) [Compound 151, rac-3-fluoro-2-hydroxy-5-((2S,3S)-3-methyl-2-(4-(pyrrolidin-1-yl)phenyl)morpholine-4-carbonyl)benzaldehyde], the results for the IC50 in test [1] and in test [2] were 16.9 µM and 7 µM, respectively.
Regarding `O=Cc1cc(C(=O)Nc2nc(-c3ccccc3)ns2)cc(F)c1O` [Compound 121, 3-fluoro-5-formyl-4-hydroxy-N-(3-phenyl-1,2,4-thiadiazol-5-yl)benzamide], the values for the half-maximal inhibitory concentration (IC50) in test [1] and in test [2] were 15.9 µM and 7.9 µM, respectively.
For `O/N=C\c1cc(-c2nc(-c3ccc(N4CCCC4)cc3)ns2)cc(F)c1O` [Compound 171, 3-fluoro-2-hydroxy-5-(3-(4-(pyrrolidin-1-yl)phenyl)-1,2,4-thiadiazol-5-yl)benzaldehyde oxime], in that order: 2.52 µM and 1.03 µM.
Consider `O=Cc1cc(C(=O)NCCc2ccc(N3CCCC3)cc2)cc(F)c1O` [Compound 143, 3-fluoro-5-formyl-4-hydroxy-N-(4-(pyrrolidin-1-yl)phenethyl)benzamide], for which the half-maximal inhibitory concentration (IC50) in test [1] worked out at 17 µM; in test [2], 12.3 µM.
Take `O=Cc1cc(-c2nc(-c3ccc(N4CCCC4)cc3)ns2)cc(F)c1OC(=O)OC1CCOC1` (centres unmarked) [Compound 162, 2-fluoro-6-formyl-4-(3-(4-(pyrrolidin-1-yl)phenyl)-1,2,4-thiadiazol-5-yl)phenyl tetrahydrofuran-3-yl carbonate]: the IC50 in test [1] turned out to be 11.5 µM; in test [2] it was 4.3 µM.
For the compound `O=Cc1cc(C(=O)Nc2nc(-c3ccccc3)cs2)cc(F)c1O` [Compound 6, 3-fluoro-5-formyl-4-hydroxy-N-(4-phenylthiazol-2-yl)benzamide], the figures for the IC50 in test [1] and in test [2] were 5.1 µM and 3.3 µM, respectively.

One may read the IC50 as the concentration needed to halve the response being measured. A high value points to a need for much substance.
